In this assay the target is HLA-A*0101 (Homo sapiens, UniProt P04439, A114D/A174V/A182V/D101N/D185E/E176A/E190D/L180R/Q94H/R68K/S129P/T187R/V100A/V91M/W191G). Description: biochemical. The format is binding. Here is the method:
A cell-free class I HLA binding assay that allows for in vitro quantification of peptide-HLA binding affinity in a competition format was used. In this assay, a fluorescently labeled, high binding, control peptide is loaded onto 384-well ½-area plates along with unlabeled experimental peptides. To remove endogenous peptides and render the HLA A and B molecules receptive to binding, HLA is heated at 53°C for 15 minutes and immediately added to the assay. The mixture is then allowed to stand for three days. Once the mixture has reached steady equilibrium (at 72 hours), displacement of the high binding control peptide is measured through fluorescence polarization. Binding of experimental peptides is expressed as the percent inhibition of the labeled control peptide (experimental fluorescence / control fluorescence, multiplied by 100). The percent inhibition values for each experimental peptide (across a range of molar concentrations) are used to calculate the concentration which inhibits 50% of the labeled control peptide’s specific binding. This value is referred to as the peptide’s IC50.

Where [1] appears, read: allele A*0101, fluorescence polarization competition, read-out: IC50 (nM), in vitro HLA binding affinity.
Where [2] appears, read: allele A*0101, cell-free competition, fluorescence polarization at 72 hours, Non-binder = no dose-dependent inhibition, read-out: IC50.
[3] abbreviates: allele A*0101, fluorescence polarization competition.

The text below walks through data of publication PMC8294059, “Identification and Immune Assessment of T Cell Epitopes in Five Plasmodium falciparum Blood Stage Antigens to Facilitate Vaccine Candidate Selection and Optimization” (Frontiers in Immunology, 2021).

Where two headings read alike, the source gives them in different places. Where a SMILES comes first, the peptide text is derived from it.

Turning to `CC[C@H](C)[C@H](NC(=O)[C@H](Cc1ccc(O)cc1)NC(=O)[C@H](CCC(=O)O)NC(=O)[C@H](CC(=O)O)NC(=O)[C@H](CC(N)=O)NC(=O)[C@@H](N)CC(C)C)C(=O)N[C@H](C(=O)N[C@@H](CO)C(=O)N[C@@H](Cc1ccc(O)cc1)C(=O)O)C(C)C` [CYRPA_286] (H-LNDEYIVSY-OH), under setting [1], the IC50 – broadly, the concentration that gives 50% inhibition – turned out to be 28100 nM.

As to `N=C(N)NCCC[C@H](NC(=O)[C@@H](N)Cc1c[nH]cn1)C(=O)N[C@@H](CCC(=O)O)C(=O)N[C@@H](Cc1c[nH]cn1)C(=O)N1CCC[C@H]1C(=O)N[C@@H](CCCCN)C(=O)N[C@@H](CCC(=O)O)C(=O)N[C@@H](Cc1ccc(O)cc1)C(=O)N[C@@H](CCC(=O)O)C(=O)N[C@@H](Cc1ccc(O)cc1)C(=O)O` [AMA1_044] (H-HREHPKEYEY-OH), the IC50 under setting [1] was found to be 11100 nM.

As for `CC[C@H](C)[C@H](NC(=O)[C@H](CCC(=O)O)NC(=O)[C@@H](NC(=O)[C@@H](N)CO)[C@@H](C)CC)C(=O)N[C@H](C(=O)N[C@@H](CCC(=O)O)C(=O)N[C@@H](CCCNC(=N)N)C(=O)N[C@@H](CO)C(=O)N[C@@H](CC(N)=O)C(=O)N[C@@H](Cc1ccc(O)cc1)C(=O)O)C(C)C` [AMA1_096] (H-SIEIVERSNY-OH), the IC50 under setting [1] amounted to 12100 nM.

Turning to `CC[C@H](C)[C@H](NC(=O)[C@H](Cc1c[nH]cn1)NC(=O)[C@@H](NC(=O)[C@H](CCC(=O)O)NC(=O)[C@H](CC(=O)O)NC(=O)[C@H](CCC(=O)O)NC(=O)[C@H](CCC(=O)O)NC(=O)CN)[C@@H](C)O)C(=O)N[C@@H](Cc1ccc(O)cc1)C(=O)O` [CYRPA_070] (H-GEEDETHIY-OH), under setting [1], the IC50 is 261000 nM.

In turn, `C[C@@H](O)[C@H](NC(=O)[C@@H](N)CC(=O)O)C(=O)N[C@@H](CC(=O)O)C(=O)N[C@@H](CO)C(=O)N[C@@H](CC(N)=O)C(=O)N[C@@H](Cc1c[nH]cn1)C(=O)N[C@H](C(=O)N1CCC[C@H]1C(=O)N[C@@H](CO)C(=O)N[C@@H](CC(N)=O)C(=O)O)[C@@H](C)O` [RH5_280] (H-DTDSNHTPSN-OH) registered an IC50 of 5880 nM.

For the molecule `N=C(N)NCCC[C@H](NC(=O)[C@H](Cc1ccc(O)cc1)NC(=O)[C@H](CO)NC(=O)[C@H](CC(=O)O)NC(=O)[C@H](CC(=O)O)NC(=O)[C@H](CC(N)=O)NC(=O)[C@H](CCCCN)NC(=O)[C@@H](N)CC(N)=O)C(=O)N[C@@H](Cc1ccc(O)cc1)C(=O)O` [RH5_246] (H-NKNDDSYRY-OH), the IC50 under setting [1] was determined as 6680 nM.

Regarding `CC(C)C[C@H](NC(=O)[C@H](CCCCN)NC(=O)[C@H](CC(=O)O)NC(=O)[C@H](CC(C)C)NC(=O)[C@H](CC(N)=O)NC(=O)[C@H](CC(=O)O)NC(=O)[C@@H](NC(=O)[C@@H](N)C(C)C)[C@@H](C)O)C(=O)N[C@@H](CO)C(=O)N[C@@H](CC(N)=O)C(=O)O` [EBA175_1465] (H-VTDNLDKLSN-OH), the IC50 under setting [2] came out at 188000 nM.

For the molecule `CC(C)C[C@H](NC(=O)[C@@H](NC(=O)[C@H](CO)NC(=O)[C@@H](NC(=O)[C@@H](N)CC(=O)O)C(C)C)[C@@H](C)O)C(=O)N[C@@H](CC(N)=O)C(=O)N[C@@H](CC(=O)O)C(=O)N[C@@H](CCC(=O)O)C(=O)N[C@@H](Cc1ccc(O)cc1)C(=O)O` [CYRPA_282] (H-DVSTLNDEY-OH), under setting [1], the IC50 amounted to 52200 nM.

Turning to `CC(C)C[C@H](NC(=O)CNC(=O)[C@H](CC(=O)O)NC(=O)[C@H](CC(N)=O)NC(=O)[C@@H](NC(=O)[C@H](CC(N)=O)NC(=O)[C@@H](NC(=O)[C@@H](N)CC(N)=O)[C@@H](C)O)C(C)C)C(=O)N[C@@H](CCCCN)C(=O)N[C@@H](Cc1ccc(O)cc1)C(=O)O` [RH5_88] (H-NTNVNDGLKY-OH), the IC50 under setting [1] turned out to be 4120 nM.

With `CC[C@H](C)[C@H](N)C(=O)N1CCC[C@H]1C(=O)N[C@@H](CC(=O)O)C(=O)N[C@@H](CC(N)=O)C(=O)N[C@@H](CC(=O)O)C(=O)N[C@@H](CCCCN)C(=O)N[C@@H](CC(N)=O)C(=O)N[C@@H](CO)C(=O)N[C@@H](CC(N)=O)C(=O)N[C@@H](Cc1ccc(O)cc1)C(=O)O` [AMA1_225] (H-IPDNDKNSNY-OH), the IC50 under setting [1] is 14700 nM.

Turning to LSDTLQLHED [EBA175_0881], the “IC50 (nM)” value (allele A*0101, cell-free competition, fluorescence polarization at 72 hours, Non-binder = no dose-dependent inhibition) is “Non-binder”.

As to STDPHTNSNN [RIPR_0545], under setting [3], the “IC50 (nM), in vitro HLA binding affinity” value is “Non-binder”.

On to NLFEQLSCY [RH5_338], for which the “IC50 (nM), in vitro HLA binding affinity” value under setting [3] is listed as “Non-Binder”.

Consider `CC[C@H](C)[C@H](NC(=O)[C@@H]1CCCN1C(=O)[C@@H](NC(=O)[C@H](CC(=O)O)NC(=O)[C@H](CC(N)=O)NC(=O)[C@@H](N)Cc1ccccc1)C(C)C)C(=O)N[C@@H](CCCCN)C(=O)N[C@@H](CCSC)C(=O)N[C@@H](CCC(=O)O)C(=O)N[C@@H](Cc1ccc(O)cc1)C(=O)O` [RH5_505] (H-FNDVPIKMEY-OH), for which the IC50 under setting [1] was determined as 498 nM.

With `CC[C@H](C)[C@H](NC(=O)[C@H](CO)NC(=O)[C@@H](N)CC(N)=O)C(=O)N[C@@H](CC(C)C)C(=O)N[C@H](C(=O)N[C@@H](CCCCN)C(=O)N1CCC[C@H]1C(=O)N[C@@H](CCC(=O)O)C(=O)N[C@@H](CCCCN)C(=O)N[C@@H](Cc1ccc(O)cc1)C(=O)O)[C@@H](C)CC` [CYRPA_311] (H-NSILIKPEKY-OH), the IC50 under setting [1] was 109000 nM.

Turning to `CC[C@H](C)[C@H](NC(=O)[C@H](CC(=O)O)NC(=O)[C@H](CC(=O)O)NC(=O)[C@H](CCCCN)NC(=O)[C@H](CCC(=O)O)NC(=O)[C@H](CCC(=O)O)NC(=O)[C@H](CCC(=O)O)NC(=O)[C@@H](NC(=O)[C@@H](N)CO)[C@@H](C)O)C(=O)N[C@@H](CCCCN)C(=O)O` [RH5_46] (H-STEEEKDDIK-OH), the IC50 under setting [1] was found to be 6830 nM.

Take `CC[C@H](C)[C@H](NC(=O)[C@H](CCCNC(=N)N)NC(=O)[C@H](CCC(=O)O)NC(=O)[C@@H](NC(=O)[C@@H](N)[C@@H](C)O)[C@@H](C)O)C(=O)N[C@@H](CO)C(=O)N[C@@H](CC(N)=O)C(=O)N[C@@H](CC(N)=O)C(=O)N[C@@H](CCC(=O)O)C(=O)N[C@@H](Cc1ccc(O)cc1)C(=O)O` [EBA175_1084] (H-TTERISNNEY-OH): under setting [2], the IC50 was determined as 904 nM.

With `C[C@@H](O)[C@H](NC(=O)[C@@H](N)Cc1ccccc1)C(=O)N[C@@H](Cc1ccc(O)cc1)C(=O)N[C@@H](CC(=O)O)C(=O)N[C@@H](CO)C(=O)N[C@@H](CCC(=O)O)C(=O)N[C@@H](CCC(=O)O)C(=O)N[C@@H](Cc1ccc(O)cc1)C(=O)N[C@@H](Cc1ccc(O)cc1)C(=O)O` [EBA175_1392] (H-FTYDSEEYY-OH), under setting [2], the IC50 was 136 nM.

For the molecule `CC(C)[C@H](NC(=O)[C@H](CC(N)=O)NC(=O)[C@H](CCCCN)NC(=O)[C@H](Cc1ccc(O)cc1)NC(=O)[C@H](CC(=O)O)NC(=O)[C@H](CCC(=O)O)NC(=O)[C@H](CC(N)=O)NC(=O)[C@@H](N)CC(N)=O)C(=O)N[C@@H](CC(=O)O)C(=O)N[C@@H](Cc1ccc(O)cc1)C(=O)O` [RH5_130] (H-NNEDYKNVDY-OH), the IC50 under setting [1] was found to be 7990 nM.

As to `CC[C@H](C)[C@H](NC(=O)[C@H](Cc1ccccc1)NC(=O)[C@H](CCCCN)NC(=O)[C@@H](NC(=O)[C@@H](NC(=O)[C@H](CC(=O)O)NC(=O)[C@@H](NC(=O)[C@@H](N)Cc1ccc(O)cc1)[C@@H](C)CC)[C@@H](C)O)[C@@H](C)CC)C(=O)N[C@@H](Cc1c[nH]cn1)C(=O)N[C@@H](CCCCN)C(=O)O` [RH5_406] (H-YIDTIKFIHK-OH), the IC50 under setting [1] was determined as 1510 nM.
